Measured values taken from the NIST ThermoML archive (doi:10.1016/j.jct.2010.05.002).

Experiment: molar heat capacity at constant pressure
Settings: 101.33 kPa, Crystal 2, Vacuum adiabatic calorimetry

Cc1ccc(-c2ccccc2)cc1 [4-methylbiphenyl]
Settings | molar heat capacity at constant pressure [J/K/mol]
8.42 K | 3.698
8.7 K | 3.996
8.96 K | 4.244
9.47 K | 4.835
9.97 K | 5.433
10.28 K | 5.778
10.67 K | 6.273
11.06 K | 6.777
11.44 K | 7.338
11.83 K | 7.812
12.21 K | 8.286
12.59 K | 8.722
12.96 K | 9.194
13.35 K | 9.76
13.72 K | 10.44
14.09 K | 10.74
14.46 K | 11.37
14.83 K | 11.81
15.2 K | 12.22
15.56 K | 12.8
15.92 K | 13.35
16.28 K | 13.95
16.65 K | 14.46
17.01 K | 14.64
17.37 K | 15.38
17.72 K | 16.09
18.08 K | 16.37
18.44 K | 17.11
18.79 K | 17.51
19.88 K | 19.13
20.58 K | 20.29
21.36 K | 21.32
22.14 K | 22.38
22.91 K | 23.6
23.69 K | 24.61
24.46 K | 25.76
25.23 K | 26.8
26 K | 27.57
26.76 K | 28.86
27.53 K | 30.07
28.29 K | 30.9
29.05 K | 32.05
29.81 K | 33.03
30.57 K | 34.28
31.33 K | 35.24
32.09 K | 36.41
32.86 K | 36.83
33.62 K | 38.31
34.37 K | 39.14
35.13 K | 39.93
35.88 K | 41.05
36.64 K | 41.53
37.39 K | 42.34
38.14 K | 43.78
38.9 K | 44.06
39.65 K | 45.4
40.4 K | 45.99
41.15 K | 46.64
41.9 K | 47.81
42.65 K | 48.69
43.4 K | 49.76
44.15 K | 50.64
44.91 K | 50.57
45.66 K | 51.28
46.41 K | 52.33
47.16 K | 53.31
47.91 K | 53.96
48.65 K | 55.09
49.4 K | 56.25
50.15 K | 56.83
50.9 K | 57.26
51.65 K | 58.12
52.4 K | 59.37
53.15 K | 59.9
53.9 K | 60.72
54.64 K | 61.66
55.39 K | 62.7
56.14 K | 63.64
56.89 K | 63.48
57.64 K | 64.25
58.39 K | 64.5
59.13 K | 64.98
59.88 K | 65.47
60.63 K | 66.03
61.37 K | 65.92
62.12 K | 66.39
62.86 K | 67.01
63.6 K | 67.59
64.35 K | 67.75
65.09 K | 68.24
65.83 K | 68.99
66.57 K | 69.46
67.32 K | 69.91
68.06 K | 70.28
68.8 K | 70.75
69.54 K | 72.08
70.28 K | 72.22
71.18 K | 72.29
72.22 K | 73.13
73.27 K | 74.21
74.32 K | 74.62
75.37 K | 75.51
76.42 K | 75.54
77.47 K | 76.16
78.51 K | 77.53
78.8 K | 78.32
79.56 K | 77.92
80.6 K | 79.11
81.65 K | 79.67
82.17 K | 81.46
